Here are results for four compounds from publication PMC7827406, “Structure–Activity Relationship (SAR) Study of Spautin-1 to Entail the Discovery of Novel NEK4 Inhibitors” (International Journal of Molecular Sciences, 2021).

What all share (test): biochemical
Holding throughout (parameters): Eurofins KinaseProfiler full panel at Km ATP, residual kinase activity (%) relative to DMSO

In assay [1] the target is T1, ARK5(h) (Homo sapiens, UniProt O60285).
T1 construct: gene NUAK1
T1 sequence (O60285 1-661): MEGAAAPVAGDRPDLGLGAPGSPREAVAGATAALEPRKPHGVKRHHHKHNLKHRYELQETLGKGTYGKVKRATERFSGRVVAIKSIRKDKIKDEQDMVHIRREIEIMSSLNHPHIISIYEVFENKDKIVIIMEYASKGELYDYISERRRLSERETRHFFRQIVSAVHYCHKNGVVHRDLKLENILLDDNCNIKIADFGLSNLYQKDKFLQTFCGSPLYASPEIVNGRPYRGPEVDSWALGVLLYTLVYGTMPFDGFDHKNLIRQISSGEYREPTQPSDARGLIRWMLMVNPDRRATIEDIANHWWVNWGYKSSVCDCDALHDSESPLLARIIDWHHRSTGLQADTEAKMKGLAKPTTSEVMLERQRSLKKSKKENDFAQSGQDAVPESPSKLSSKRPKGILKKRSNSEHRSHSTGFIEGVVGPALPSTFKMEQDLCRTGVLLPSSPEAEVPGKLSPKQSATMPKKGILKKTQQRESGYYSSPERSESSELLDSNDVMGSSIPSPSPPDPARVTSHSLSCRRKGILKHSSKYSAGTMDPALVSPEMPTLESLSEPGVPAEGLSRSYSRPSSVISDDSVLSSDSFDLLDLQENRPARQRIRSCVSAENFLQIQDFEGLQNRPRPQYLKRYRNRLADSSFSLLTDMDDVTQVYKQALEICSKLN
A digest of the protocol:
(§1)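 Compounds screened at 10 µM in radiometric kinase activity assays at Km ATP, reported as remaining kinase activity (%). A KINOMEscan competition-binding screen at 10 µM measured DNA-tagged kinase retained on immobilized active-site ligand by qPCR.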

Assay [2] deals with T2, Aurora-C(h) (Homo sapiens, UniProt Q9UQB9).
T2 construct: gene AURKC
T2 sequence (Q9UQB9 1-309): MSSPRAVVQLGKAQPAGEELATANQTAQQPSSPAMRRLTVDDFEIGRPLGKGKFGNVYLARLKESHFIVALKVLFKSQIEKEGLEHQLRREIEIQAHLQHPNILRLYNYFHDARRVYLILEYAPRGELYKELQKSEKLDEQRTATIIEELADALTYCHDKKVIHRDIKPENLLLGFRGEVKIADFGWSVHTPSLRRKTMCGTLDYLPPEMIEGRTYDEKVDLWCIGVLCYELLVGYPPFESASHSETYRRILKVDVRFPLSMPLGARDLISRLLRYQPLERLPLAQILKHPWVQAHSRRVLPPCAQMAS
A digest of the protocol: as §1

The target in assay [3] is T3, NDR2(h) (Homo sapiens, UniProt Q9Y2H1).
T3 construct: gene STK38L
A digest of the protocol: as §1

Assay [4] has as its target T4, Tie2 (h) (Homo sapiens, UniProt Q02763).
T4 construct: gene TEK
The gist of the method:
as §1

Assay [5] deals with T5, ROCK-II(h) (Homo sapiens, UniProt O75116).
T5 construct: gene ROCK2
A digest of the protocol:
as §1

Assay [6] concerns the target T6, MST4(h) (Homo sapiens, UniProt Q9P289).
T6 construct: gene STK26
The gist of the method:
as §1

The mark [7] stands for this setting: read-out: Residual activity (%) Spautin-1 5aa.
[8] abbreviates: read-out: Residual activity (%) 5as.
The mark [9] stands for this setting: read-out: Residual activity (%) 5at.
Setting [10] is: read-out: Residual activity (%) 5ay.

Like-named read-outs stand apart in the source and are kept apart here.

T6 sequence (Q9P289 whole entry): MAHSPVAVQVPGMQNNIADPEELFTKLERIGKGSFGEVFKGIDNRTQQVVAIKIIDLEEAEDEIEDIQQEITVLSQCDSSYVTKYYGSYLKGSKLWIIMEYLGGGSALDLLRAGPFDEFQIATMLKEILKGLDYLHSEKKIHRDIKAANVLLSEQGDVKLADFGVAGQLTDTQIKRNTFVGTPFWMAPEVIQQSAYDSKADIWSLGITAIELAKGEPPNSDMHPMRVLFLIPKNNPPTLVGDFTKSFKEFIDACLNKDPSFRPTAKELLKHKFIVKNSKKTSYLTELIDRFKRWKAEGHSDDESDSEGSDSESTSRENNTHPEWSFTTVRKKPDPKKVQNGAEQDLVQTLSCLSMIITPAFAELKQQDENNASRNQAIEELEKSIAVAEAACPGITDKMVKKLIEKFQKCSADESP
T5 sequence (O75116 whole entry): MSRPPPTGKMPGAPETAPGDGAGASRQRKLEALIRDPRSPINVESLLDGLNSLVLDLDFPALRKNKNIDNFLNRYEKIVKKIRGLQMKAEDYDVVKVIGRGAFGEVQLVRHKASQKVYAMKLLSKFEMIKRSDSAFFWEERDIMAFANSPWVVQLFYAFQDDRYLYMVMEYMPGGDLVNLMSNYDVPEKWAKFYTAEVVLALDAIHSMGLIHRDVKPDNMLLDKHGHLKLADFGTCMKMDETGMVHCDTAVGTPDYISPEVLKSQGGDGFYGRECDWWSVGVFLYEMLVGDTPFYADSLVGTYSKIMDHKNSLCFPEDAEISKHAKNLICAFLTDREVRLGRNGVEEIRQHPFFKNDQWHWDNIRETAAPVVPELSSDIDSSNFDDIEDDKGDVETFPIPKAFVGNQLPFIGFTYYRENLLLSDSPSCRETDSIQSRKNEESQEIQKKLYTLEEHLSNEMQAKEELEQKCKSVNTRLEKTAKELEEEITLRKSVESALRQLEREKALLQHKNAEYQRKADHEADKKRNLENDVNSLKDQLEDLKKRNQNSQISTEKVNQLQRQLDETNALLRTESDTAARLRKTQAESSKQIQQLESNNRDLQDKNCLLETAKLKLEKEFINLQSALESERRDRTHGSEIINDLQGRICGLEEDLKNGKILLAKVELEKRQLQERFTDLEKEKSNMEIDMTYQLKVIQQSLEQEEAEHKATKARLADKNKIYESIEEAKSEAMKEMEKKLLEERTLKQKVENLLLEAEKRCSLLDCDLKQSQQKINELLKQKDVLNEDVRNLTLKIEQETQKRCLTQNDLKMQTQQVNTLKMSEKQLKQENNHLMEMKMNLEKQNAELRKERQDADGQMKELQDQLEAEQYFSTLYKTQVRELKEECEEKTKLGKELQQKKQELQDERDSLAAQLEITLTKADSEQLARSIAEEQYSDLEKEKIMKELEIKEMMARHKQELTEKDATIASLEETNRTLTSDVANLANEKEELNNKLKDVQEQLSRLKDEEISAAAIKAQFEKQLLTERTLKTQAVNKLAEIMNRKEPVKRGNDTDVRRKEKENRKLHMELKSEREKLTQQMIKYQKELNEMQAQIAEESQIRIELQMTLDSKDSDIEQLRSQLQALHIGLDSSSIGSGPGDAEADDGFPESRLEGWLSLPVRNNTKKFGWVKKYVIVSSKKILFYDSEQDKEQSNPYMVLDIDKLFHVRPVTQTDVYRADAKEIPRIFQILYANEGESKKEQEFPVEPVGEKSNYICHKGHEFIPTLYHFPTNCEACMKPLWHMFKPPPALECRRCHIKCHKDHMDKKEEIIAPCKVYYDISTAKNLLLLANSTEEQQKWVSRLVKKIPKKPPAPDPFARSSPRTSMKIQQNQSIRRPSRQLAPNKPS
T4 sequence (Q02763 whole entry): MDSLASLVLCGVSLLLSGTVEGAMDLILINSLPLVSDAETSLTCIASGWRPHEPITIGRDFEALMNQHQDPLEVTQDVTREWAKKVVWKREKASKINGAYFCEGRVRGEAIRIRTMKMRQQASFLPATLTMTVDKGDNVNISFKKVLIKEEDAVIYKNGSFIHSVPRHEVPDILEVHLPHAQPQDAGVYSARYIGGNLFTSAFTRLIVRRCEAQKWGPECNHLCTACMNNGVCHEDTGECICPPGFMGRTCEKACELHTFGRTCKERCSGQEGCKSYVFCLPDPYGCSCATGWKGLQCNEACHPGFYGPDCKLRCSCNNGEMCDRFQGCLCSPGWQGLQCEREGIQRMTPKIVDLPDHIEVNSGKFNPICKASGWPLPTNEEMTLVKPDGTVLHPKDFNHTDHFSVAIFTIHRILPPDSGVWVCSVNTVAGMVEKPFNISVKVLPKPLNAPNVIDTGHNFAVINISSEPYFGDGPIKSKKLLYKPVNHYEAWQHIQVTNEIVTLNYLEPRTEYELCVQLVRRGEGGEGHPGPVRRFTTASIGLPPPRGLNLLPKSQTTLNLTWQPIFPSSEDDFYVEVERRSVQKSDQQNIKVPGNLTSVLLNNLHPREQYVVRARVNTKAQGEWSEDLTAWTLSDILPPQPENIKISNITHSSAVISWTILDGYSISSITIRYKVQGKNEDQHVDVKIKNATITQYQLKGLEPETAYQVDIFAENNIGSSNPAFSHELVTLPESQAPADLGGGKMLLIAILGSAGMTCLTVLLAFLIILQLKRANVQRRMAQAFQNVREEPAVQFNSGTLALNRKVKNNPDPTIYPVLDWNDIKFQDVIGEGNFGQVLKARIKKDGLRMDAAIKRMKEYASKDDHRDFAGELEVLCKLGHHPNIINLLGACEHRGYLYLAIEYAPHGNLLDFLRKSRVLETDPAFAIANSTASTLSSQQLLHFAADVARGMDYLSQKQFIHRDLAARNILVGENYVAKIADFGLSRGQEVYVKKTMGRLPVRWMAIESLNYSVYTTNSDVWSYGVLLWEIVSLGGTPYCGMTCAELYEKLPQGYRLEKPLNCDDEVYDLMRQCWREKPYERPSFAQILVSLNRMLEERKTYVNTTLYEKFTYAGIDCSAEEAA
T3 sequence (Q9Y2H1 whole entry): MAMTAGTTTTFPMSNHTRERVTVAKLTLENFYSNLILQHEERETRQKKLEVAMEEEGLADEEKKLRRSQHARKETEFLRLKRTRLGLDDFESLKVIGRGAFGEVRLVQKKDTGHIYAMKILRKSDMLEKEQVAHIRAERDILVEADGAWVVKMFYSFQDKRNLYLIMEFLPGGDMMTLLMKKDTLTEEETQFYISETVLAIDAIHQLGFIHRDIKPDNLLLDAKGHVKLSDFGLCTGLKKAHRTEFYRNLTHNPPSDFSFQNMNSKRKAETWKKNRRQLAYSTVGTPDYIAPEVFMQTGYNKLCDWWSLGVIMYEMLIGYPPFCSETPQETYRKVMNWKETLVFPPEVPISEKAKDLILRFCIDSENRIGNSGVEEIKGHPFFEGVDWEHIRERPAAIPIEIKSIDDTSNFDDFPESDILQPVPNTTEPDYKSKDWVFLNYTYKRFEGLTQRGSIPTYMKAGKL

As to `Fc1ccc(CNc2ncnc3ccc(F)cc23)cc1` [5aa, 6-Fluoro-N-(4-fluorobenzyl)-4-Quinazolinamine], the remaining activity at 10 µM in assay [1] (setting [7]) worked out at 99%; in assay [2] (setting [7]), 120%; in assay [3] (setting [7]) it was 120%; in assay [4] (setting [7]), 104%; in assay [5] (setting [7]) it was 88%; in assay [6] (setting [7]) it was 58%.

As for `Fc1ccc(CCNc2ncnc3ccc(F)cc23)cc1` [5as, 6-Fluoro-N-[2-(4-Fluorophenyl)Ethyl]-4-Quinazolinamine], the remaining activity at 10 µM in assay [1] (setting [8]) was 101%; in assay [2] (setting [8]), 102%; in assay [3] (setting [8]), 99%; in assay [4] (setting [8]), 92%; in assay [5] (setting [8]), 81%; in assay [6] (setting [8]) it was 81%.

As to `Fc1ccc2ncnc(NCCc3ccc(Cl)cc3)c2c1` [5at, N-[2-(4-Chlorophenyl)Ethyl]-6-Fluoro-4-Quinazolinamine], the remaining activity at 10 µM in assay [1] (setting [9]) stood at 105%; in assay [2] (setting [9]), 118%; in assay [3] (setting [9]), 115%; in assay [4] (setting [9]), 75%; in assay [5] (setting [9]) it was 79%; in assay [6] (setting [9]), 72%.

As for `COc1ccc2ncnc(Nc3cccc(F)c3)c2c1` [5ay, N-(3-Fluorophenyl)-6-Methoxy-4-Quinazolinamine], the remaining activity at 10 µM is 93% in assay [1] (setting [10]); 106% in assay [2] (setting [10]); 103% in assay [3] (setting [10]); 94% in assay [4] (setting [10]); 84% in assay [5] (setting [10]); 64% in assay [6] (setting [10]).
